Like-named read-outs stand apart in the source and are kept apart here.
Key:
mice [1] = experiment: Maximal electroshock seizure (MES) test; assay type: in vivo, mouse; details: mice i.p.; for MES screening: number of mice protected / number of mice tested / protection in the MES test: 100 mg/kg, 0.5 h; for ED50: Mus musculus, ip, 95% confidence interval in parentheses
mice [2] = experiment: Psychomotor 6 Hz (32 mA) seizure test; assay type: in vivo, mouse; details: mice i.p.; for 6 Hz (32 mA) screening: number of mice protected / number of mice tested / protection in the 6 Hz (32 mA) test: 100 mg/kg, 0.5 h; for ED50: Mus musculus, ip, 95% confidence interval in parentheses
mice [3] = experiment: Subcutaneous pentylenetetrazole (scPTZ) seizure test; assay type: in vivo, mouse; details: mice i.p.; for scPTZ screening: number of mice protected / number of mice tested / protection in the scPTZ test: 100 mg/kg, 0.5 h; for ED50: Mus musculus, ip, 95% confidence interval in parentheses
mice [4] = test system: mice; parameters: method as in PMID 32929733; details: mice i.p.; cited from earlier work
in vivo = details: male, CD-1, mouse, ip
mice [5] = details: mice i.p., cited from earlier work
mice [6] = test system: mice; parameters: method as in PMID 28934547; details: active only in a very high dose; cited from earlier work
mice [7] = details: mice i.p.; cited from earlier work
mice [8] = details: mice i.p.; cited from earlier work; remark: listed apart in the source
mice [9] = details: mice i.p.; cited from earlier work; remark: listed apart in the source
[10] = test system: fast voltage-gated sodium currents in rat prefrontal cortex pyramidal neurons; parameters: method as in PMID 33647745; details: 1 µM; p < 0.01, n = 5; cited from earlier work
[11] = test system: TTX-sensitive Na+ channel; experiment: Radioligand binding, TTX-sensitive Na+ channel; details: rat cerebral cortex
TRPV1 (VR1) (h) = biological target: T1, TRPV1 (VR1) (h) (Homo sapiens, UniProt Q8NER1); experiment: TRPV1 (VR1) functional assay, antagonist effect; assay type: cell-based; details: HEK293, human recombinant HEK-293 cells, read-out: % Inhibition of Control Agonist Response, TRPV1 (VR1) (h) (antagonist effect)
T1 construct: Cerep Laboratories / Eurofins Panlabs (contract assay)
T1 sequence (Q8NER1 whole entry): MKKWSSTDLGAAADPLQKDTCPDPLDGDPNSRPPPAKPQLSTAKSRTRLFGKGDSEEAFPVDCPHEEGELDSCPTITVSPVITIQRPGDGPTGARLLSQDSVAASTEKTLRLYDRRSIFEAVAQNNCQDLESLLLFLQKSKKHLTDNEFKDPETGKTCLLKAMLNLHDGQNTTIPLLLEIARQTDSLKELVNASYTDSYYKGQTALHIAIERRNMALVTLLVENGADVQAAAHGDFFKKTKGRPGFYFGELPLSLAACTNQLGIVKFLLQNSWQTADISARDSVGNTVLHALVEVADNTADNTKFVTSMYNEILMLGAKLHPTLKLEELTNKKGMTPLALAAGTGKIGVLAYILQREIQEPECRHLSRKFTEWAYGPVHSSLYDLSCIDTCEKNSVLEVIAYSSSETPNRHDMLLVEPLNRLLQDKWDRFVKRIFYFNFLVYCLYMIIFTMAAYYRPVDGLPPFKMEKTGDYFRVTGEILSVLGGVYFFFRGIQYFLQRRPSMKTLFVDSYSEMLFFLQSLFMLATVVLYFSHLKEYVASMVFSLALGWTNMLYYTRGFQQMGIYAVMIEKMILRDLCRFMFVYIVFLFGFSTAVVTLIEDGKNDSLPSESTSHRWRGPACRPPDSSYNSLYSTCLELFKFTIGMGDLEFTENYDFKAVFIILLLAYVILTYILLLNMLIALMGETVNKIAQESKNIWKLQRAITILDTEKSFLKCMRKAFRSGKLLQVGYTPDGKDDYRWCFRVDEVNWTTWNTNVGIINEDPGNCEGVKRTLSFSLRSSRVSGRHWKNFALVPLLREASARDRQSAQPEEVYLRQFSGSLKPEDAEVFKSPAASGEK

[12] = test system: Cav1.2 channel (dihydropyridine site, antagonist radioligand); experiment: Radioligand binding, Cav1.2 channel (dihydropyridine site); details: rat cerebral cortex
[13] = biological target: Cav1.2 (h) calcium ion channel (Homo sapiens, UniProt Q13936); experiment: Cav1.2 calcium ion channel cell based antagonist calcium flux assay; details: HEK293, read-out: % Inhibition of Control Agonist Response, Cav1.2 (h) calcium ion channel cell based antagonist calcium flux assay
Chain of Cav1.2 (h) calcium ion channel (Q13936 whole entry): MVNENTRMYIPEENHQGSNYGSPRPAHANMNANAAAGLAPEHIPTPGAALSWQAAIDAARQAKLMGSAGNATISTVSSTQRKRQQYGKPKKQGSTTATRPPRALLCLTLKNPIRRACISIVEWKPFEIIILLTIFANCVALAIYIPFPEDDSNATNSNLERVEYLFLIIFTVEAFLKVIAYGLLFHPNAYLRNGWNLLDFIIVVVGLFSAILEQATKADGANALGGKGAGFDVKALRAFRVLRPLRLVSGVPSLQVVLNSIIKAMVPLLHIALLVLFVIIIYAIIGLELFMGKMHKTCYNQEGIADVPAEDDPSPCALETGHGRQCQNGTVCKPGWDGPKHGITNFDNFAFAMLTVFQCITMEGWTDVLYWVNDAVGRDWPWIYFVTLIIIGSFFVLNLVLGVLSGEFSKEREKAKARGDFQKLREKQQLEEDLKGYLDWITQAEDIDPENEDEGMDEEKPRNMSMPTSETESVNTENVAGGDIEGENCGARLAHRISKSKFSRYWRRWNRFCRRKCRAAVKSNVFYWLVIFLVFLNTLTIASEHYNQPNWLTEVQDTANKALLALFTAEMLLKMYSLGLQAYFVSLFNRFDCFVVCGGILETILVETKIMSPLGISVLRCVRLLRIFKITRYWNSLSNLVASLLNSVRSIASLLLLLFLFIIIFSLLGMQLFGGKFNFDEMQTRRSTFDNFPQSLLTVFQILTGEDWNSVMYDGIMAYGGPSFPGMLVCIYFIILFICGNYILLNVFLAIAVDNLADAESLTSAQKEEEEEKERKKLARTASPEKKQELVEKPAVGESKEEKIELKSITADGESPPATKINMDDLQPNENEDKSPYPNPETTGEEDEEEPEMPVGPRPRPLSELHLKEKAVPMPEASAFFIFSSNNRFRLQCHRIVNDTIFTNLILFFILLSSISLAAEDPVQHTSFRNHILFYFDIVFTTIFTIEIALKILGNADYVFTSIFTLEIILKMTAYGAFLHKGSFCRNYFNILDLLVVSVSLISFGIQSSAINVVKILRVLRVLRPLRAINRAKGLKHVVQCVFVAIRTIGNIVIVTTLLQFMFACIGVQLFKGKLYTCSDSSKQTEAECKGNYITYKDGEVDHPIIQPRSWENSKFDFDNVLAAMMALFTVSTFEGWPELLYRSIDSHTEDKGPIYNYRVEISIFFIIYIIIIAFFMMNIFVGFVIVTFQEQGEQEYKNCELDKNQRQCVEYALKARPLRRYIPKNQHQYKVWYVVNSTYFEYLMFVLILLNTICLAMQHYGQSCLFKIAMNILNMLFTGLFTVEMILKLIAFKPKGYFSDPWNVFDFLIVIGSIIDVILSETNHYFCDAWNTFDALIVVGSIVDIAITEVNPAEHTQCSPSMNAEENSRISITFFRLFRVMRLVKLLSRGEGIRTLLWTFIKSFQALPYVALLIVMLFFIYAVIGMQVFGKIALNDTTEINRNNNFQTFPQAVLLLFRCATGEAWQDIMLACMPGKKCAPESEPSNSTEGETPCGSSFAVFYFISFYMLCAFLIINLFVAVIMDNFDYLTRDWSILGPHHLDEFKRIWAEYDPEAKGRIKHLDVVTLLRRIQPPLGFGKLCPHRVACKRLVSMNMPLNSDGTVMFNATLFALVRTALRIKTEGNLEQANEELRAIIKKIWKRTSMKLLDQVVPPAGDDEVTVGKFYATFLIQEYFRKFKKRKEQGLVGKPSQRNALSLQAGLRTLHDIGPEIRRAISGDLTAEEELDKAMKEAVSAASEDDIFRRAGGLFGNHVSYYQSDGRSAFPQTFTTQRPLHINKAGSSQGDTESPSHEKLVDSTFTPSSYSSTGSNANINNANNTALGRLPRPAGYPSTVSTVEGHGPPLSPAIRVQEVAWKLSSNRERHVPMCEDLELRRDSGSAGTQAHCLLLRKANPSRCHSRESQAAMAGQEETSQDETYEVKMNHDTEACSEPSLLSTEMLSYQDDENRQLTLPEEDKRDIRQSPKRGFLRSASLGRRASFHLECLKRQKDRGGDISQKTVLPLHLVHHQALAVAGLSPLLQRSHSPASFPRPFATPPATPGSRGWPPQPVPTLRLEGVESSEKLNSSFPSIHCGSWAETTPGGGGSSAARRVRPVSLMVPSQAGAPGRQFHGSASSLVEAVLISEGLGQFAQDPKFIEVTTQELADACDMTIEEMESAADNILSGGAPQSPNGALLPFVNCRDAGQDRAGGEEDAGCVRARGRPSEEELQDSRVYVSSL
Chain of Cav1.2 (h) calcium ion channel (Q08289 whole entry partner): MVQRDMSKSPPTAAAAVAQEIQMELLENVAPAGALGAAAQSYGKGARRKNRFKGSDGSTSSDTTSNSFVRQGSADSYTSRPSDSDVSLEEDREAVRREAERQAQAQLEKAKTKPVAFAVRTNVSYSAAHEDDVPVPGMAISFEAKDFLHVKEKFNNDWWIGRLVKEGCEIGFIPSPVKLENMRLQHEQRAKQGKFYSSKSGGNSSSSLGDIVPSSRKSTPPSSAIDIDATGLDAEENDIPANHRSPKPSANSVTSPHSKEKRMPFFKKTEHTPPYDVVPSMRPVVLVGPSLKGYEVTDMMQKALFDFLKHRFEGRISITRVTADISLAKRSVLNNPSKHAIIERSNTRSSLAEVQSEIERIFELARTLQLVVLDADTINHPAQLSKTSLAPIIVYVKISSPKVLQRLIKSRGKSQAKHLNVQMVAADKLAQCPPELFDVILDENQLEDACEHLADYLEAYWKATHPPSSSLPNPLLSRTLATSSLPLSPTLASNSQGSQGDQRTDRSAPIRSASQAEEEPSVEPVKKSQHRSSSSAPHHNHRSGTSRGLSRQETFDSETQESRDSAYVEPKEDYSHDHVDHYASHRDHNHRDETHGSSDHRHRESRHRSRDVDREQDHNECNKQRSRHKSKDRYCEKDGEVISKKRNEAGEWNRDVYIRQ
Chain of Cav1.2 (h) calcium ion channel (P54289 25-956 partner limits assumed): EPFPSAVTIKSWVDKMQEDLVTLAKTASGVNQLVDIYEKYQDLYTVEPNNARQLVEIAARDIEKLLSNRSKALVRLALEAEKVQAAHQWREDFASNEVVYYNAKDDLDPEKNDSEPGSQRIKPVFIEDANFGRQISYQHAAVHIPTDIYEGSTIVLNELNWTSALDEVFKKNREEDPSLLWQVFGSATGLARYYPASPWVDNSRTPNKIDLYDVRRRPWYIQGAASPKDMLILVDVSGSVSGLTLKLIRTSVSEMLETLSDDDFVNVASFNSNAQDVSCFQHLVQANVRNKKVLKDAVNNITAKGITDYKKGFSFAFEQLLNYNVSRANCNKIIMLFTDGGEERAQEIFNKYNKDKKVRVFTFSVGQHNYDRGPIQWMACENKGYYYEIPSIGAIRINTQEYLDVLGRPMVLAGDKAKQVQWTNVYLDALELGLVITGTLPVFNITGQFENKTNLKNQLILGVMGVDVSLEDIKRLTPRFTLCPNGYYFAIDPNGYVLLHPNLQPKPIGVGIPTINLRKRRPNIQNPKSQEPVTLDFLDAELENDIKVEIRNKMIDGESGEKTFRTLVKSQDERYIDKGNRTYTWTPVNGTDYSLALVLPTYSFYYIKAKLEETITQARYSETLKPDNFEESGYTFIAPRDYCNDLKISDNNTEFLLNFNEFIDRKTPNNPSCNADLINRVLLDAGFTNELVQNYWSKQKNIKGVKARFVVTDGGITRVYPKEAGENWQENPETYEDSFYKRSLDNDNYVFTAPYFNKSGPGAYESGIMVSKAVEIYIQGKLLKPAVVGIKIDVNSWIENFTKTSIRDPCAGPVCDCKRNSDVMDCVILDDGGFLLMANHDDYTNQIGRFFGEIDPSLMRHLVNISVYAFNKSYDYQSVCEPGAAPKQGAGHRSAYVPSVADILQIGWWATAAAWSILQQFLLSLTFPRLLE
Chain of Cav1.2 (h) calcium ion channel (P54289 957-1103 partner limits assumed): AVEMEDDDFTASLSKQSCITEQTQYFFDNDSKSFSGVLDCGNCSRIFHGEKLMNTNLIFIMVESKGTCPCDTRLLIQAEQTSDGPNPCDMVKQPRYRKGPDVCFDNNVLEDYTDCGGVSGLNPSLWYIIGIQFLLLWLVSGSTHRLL

SMILES | MES screening: number of mice protected / number of mice tested (mice [1]) | 6 Hz (32 mA) screening: number of mice protected / number of mice tested (mice [2]) | scPTZ screening: number of mice protected / number of mice tested (mice [3]) | melting point | ED50 (mice [1]) | TD50 (in vivo) | ED50 (mice [3]) | ED50 (mice [2]) | protection in the 6 Hz (32 mA) test (mice [2]) | also measured
CN(C)C1CC(=O)N([C@@H](C(=O)N2CCN(c3cccc(SC(F)(F)F)c3)CC2)c2ccccc2)C1=O.Cl (stereo partly drawn) [(C1-R)-33, 3-Dimethylamino-1-((R)-2-oxo-1-phenyl-2-(4-(3-((trifluoromethyl)thio)phenyl)piperazin-1-yl)ethyl)pyrrolidine-2,5-dione hydrochloride] | 1/4 | 1/4 | 1/4 | 173.2 to 174.7 °C | – | – | – | – | – | –
CC[C@@H](C(N)=O)N1CCCC1=O [LEV, levetiracetam, reference compound] | – | – | – | – | > 500 mg/kg | > 500 mg/kg | – | – | – | ED50 6 Hz (44 mA) (mice [4]): >500 mg/kg; TD50 (rotarod test) (mice [5]; Table 2): >500 mg/kg
CCCC(CCC)C(=O)O [VPA, valproic acid, reference compound] | – | – | – | – | – | – | 239 mg/kg | – | – | dose active in the capsaicin test (mice [6]): 200 mg/kg
O=C(C(c1ccccc1)N1C(=O)CCC1=O)N1CCN(c2cccc(C(F)(F)F)c2)CC1 (stereo not drawn) [I] | – | – | – | – | – | – | – | – | – | ED50 MES (mice [7]): 23.7 (18.4–31.2) mg/kg; ED50 6 Hz (32 mA) (mice [8]): 22.4 (17.4–28.8) mg/kg; ED50 scPTZ (mice [9]): 59.4 (37.5–94.1) mg/kg; ED50 6 Hz (44 mA) (mice [4]): 73.2 (57.4–93.4) mg/kg; TD50 (rotarod test) (mice [5]; Table 2): 195.7 (132.7–288.6) mg/kg; TD50 (rotarod test) (mice [5]): 195.7 (132.7–288.6) mg/kg
Cl.O=C(C(c1ccccc1)N1C(=O)CC(N2CCOCC2)C1=O)N1CCN(c2cccc(C(F)(F)F)c2)CC1 (stereo not drawn) [Compound 16, 3-Morpholino-1-(2-oxo-1-phenyl-2-(4-(3-(trifluoromethyl)phenyl)piperazin-1-yl)ethyl)pyrrolidine-2,5-dione hydrochloride] | 0/4 | 0/4 | 1/4 | 146.2 to 147.5 °C | – | – | – | – | – | –
CCN(CC)C1CC(=O)N(C(C(=O)N2CCN(c3cccc(C(F)(F)F)c3)CC2)c2ccccc2)C1=O.Cl (stereo not drawn) [Compound 15, 3-(Diethylamino)-1-(2-oxo-1-phenyl-2-(4-(3-(trifluoromethyl)phenyl)piperazin-1-yl)ethyl)pyrrolidine-2,5-dione hydrochloride] | 4/4 | 3/4 | 1/4 | 142.2 to 143.1 °C | 77.5 mg/kg | 247 mg/kg | – | 80.4 mg/kg | 75% | protection in the MES test (mice [1]): 100%
CNC1CC(=O)N(C(C(=O)N2CCN(c3cccc(C(F)(F)F)c3)CC2)c2ccccc2)C1=O.Cl (stereo not drawn) [Compound 13, 3-(Methylamino)-1-(2-oxo-1-phenyl-2-(4-(3-(trifluoromethyl)phenyl)piperazin-1-yl)ethyl)pyrrolidine-2,5-dione hydrochloride] | 1/4 | 2/4 | 2/4 | 161.2 to 163.4 °C | – | – | 85.6 mg/kg | 93.6 mg/kg | 50% | –
CN(C)C1CC(=O)N([C@@H](C(=O)N2CCN(c3cccc(C(F)(F)F)c3)CC2)c2ccccc2)C1=O.Cl (stereo partly drawn) [(C1-R)-31, 3-Dimethylamino-1-((R)-oxo-1-phenyl-2-(4-(3-(trifluoromethyl)phenyl)-piperazin-1-yl)ethyl)pyrrolidine-2,5-dione hydrochloride] | 4/4 | 3/4 | 3/4 | 169.8 to 170.6 °C | 57.7 mg/kg | 94.9 mg/kg | 65.5 mg/kg | 50.9 mg/kg | 75% | protection in the MES test (mice [1]): 100%; protection in the scPTZ test (mice [3]): 75%
CCC1(C)CC(=O)NC1=O (stereo not drawn) [ETX, ethosuximide, reference compound] | – | – | – | – | – | – | 140 mg/kg | > 200 mg/kg | – | –
O=C([C@@H](c1ccccc1)N1C(=O)CCC1=O)N1CCN(c2cccc(C(F)(F)F)c2)CC1 [II] | – | – | – | – | – | – | – | – | – | ED50 MES (mice [7]): 36.0 (31.4–41.2) mg/kg; ED50 6 Hz (32 mA) (mice [8]): 39.2 (31.6–48.6) mg/kg; ED50 scPTZ (mice [9]): 54.8 (43.5–69.1) mg/kg; maximal sodium current amplitude normalized to control (1.0) [10]: 0.75 ± 0.04
CN(C)C1CC(=O)N(C(C(=O)N2CCN(c3cccc(SC(F)(F)F)c3)CC2)c2ccccc2)C1=O.Cl (stereo not drawn) [Compound 18, 3-Dimethylamino-1-(2-oxo-1-phenyl-2-(4-(3-((trifluoromethyl)thio)phenyl)piperazin-1-yl)ethyl)pyrrolidine-2,5-dione hydrochloride] | 1/4 | 1/4 | 1/4 | 170.1 to 171.5 °C | – | – | – | – | – | –
CN(C)C1CC(=O)N(C(C(=O)N2CCN(c3cccc(OC(F)(F)F)c3)CC2)c2ccccc2)C1=O.Cl (stereo not drawn) [Compound 17, 3-Dimethylamino-1-(2-oxo-1-phenyl-2-(4-(3-(trifluoromethoxy)phenyl)piperazin-1-yl)ethyl)pyrrolidine-2,5-dione hydrochloride] | 3/4 | 2/4 | 3/4 | 152.3 to 153.5 °C | 33.3 mg/kg | 69.7 mg/kg | 31.3 mg/kg | 28.2 mg/kg | 50% | protection in the MES test (mice [1]): at least 75%; protection in the scPTZ test (mice [3]): 75%
CN(C)C1CC(=O)N([C@H](C(=O)N2CCN(c3cccc(C(F)(F)F)c3)CC2)c2ccccc2)C1=O.Cl (stereo partly drawn) [(C1-S)-31, 3-Dimethylamino-1-((S)-oxo-1-phenyl-2-(4-(3-(trifluoromethyl)phenyl)-piperazin-1-yl)ethyl)pyrrolidine-2,5-dione hydrochloride] | 1/4 | 2/4 | 1/4 | 169.2 to 170.8 °C | – | 188 mg/kg | – | > 130 mg/kg | – | –
COC[C@@H](NC(C)=O)C(=O)NCc1ccccc1 [LCS, lacosamide] | – | – | – | – | – | – | – | – | – | ED50 6 Hz (44 mA) (mice [4]): 6.9 (5.4–8.6) mg/kg
CN(C)C1CC(=O)N([C@@H](C(=O)N2CCN(c3cccc(OC(F)(F)F)c3)CC2)c2ccccc2)C1=O.Cl (stereo partly drawn) [(C1-R)-32, 3-Dimethylamino-1-((R)-2-oxo-1-phenyl-2-(4-(3-(trifluoromethoxy)phenyl)piperazin-1-yl)ethyl)pyrrolidine-2,5-dione hydrochloride] | 4/4 | 3/4 | 3/4 | 164.8 to 165.7 °C | 26.3 mg/kg | 72 mg/kg | 44.9 mg/kg | 28.3 mg/kg | 75% | protection in the MES test (mice [1]): 100%; protection in the scPTZ test (mice [3]): 75%; % Inhibition of Control-Specific Binding, TTX-sensitive Na+ channel ([11]; 10 µM): 33.4%; % Inhibition of Control-Specific Binding, TTX-sensitive Na+ channel ([11]; 50 µM): 101.9%; inhibition at 10 µM (TRPV1 (VR1) (h); 10 µM): 8.5%; inhibition at 50 µM (TRPV1 (VR1) (h); 50 µM): 44.6%; % Inhibition of Control-Specific Binding, Cav1.2 channel (dihydropyridine site, antagonist radioligand) ([12]; 10 µM): 18.6%; % Inhibition of Control-Specific Binding, Cav1.2 channel (dihydropyridine site, antagonist radioligand) ([12]; 50 µM): 88.9%; inhibition at 10 µM [13]: 38%

Reference: article PMC8658016, “Identification of New Compounds with Anticonvulsant and Antinociceptive Properties in a Group of 3-substituted (2,5-dioxo-pyrrolidin-1-yl)(phenyl)-Acetamides” (International Journal of Molecular Sciences, 2021)
